Data reported in patent US20230085307A1, “PYRIDAZINONE COMPOUND AND HERBICIDE” (NISSAN CHEMICAL CORPORATION, priority 2019, published 2023).

Key:
velvetleaf [1] = experiment: Test Example 5: herbicidal effect by foliage application, plastic box (Table 20, symbol M); type: in vivo, velvetleaf (Abutilon theophrasti); details: amount of applied herbicide 320 g/ha; foliage application after 14-day growth; evaluated three weeks after application
Procedure, shortened: (§1)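 Sow seeds spot-wise in sterilized diluvial soil; cover with ~1.5 cm soil. Grow 14 days in greenhouse, 25° C. to 30° C. Spray foliage with emulsion diluted to predetermined amount. Rate effect after 3 weeks.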

windgrass = experiment: Test Example 4: herbicidal effect by soil treatment (Table 19, symbol L); type: in vivo, windgrass (Apera spica-venti); details: amount of applied herbicide 320 g/ha
Procedure, shortened: (§2)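 Applied as a water-diluted emulsion, the compound was sprayed onto soil covering newly sown seeds. Evaluation came three weeks after application, in a greenhouse held at 25° C. to 30° C.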

barnyard grass = experiment: Test Example 4: herbicidal effect by soil treatment (Table 19, symbol H); type: in vivo, barnyard grass (Echinochloa crus-galli); details: amount of applied herbicide 320 g/ha
Procedure, shortened: as §2

chickweed [2] = experiment: Test Example 4: herbicidal effect by soil treatment (Table 19, symbol P); type: in vivo, common chickweed (Stellaria media); details: amount of applied herbicide 320 g/ha
Procedure, shortened: as §2

chickweed [3] = experiment: Test Example 5: herbicidal effect by foliage application, plastic box (Table 20, symbol P); type: in vivo, common chickweed (Stellaria media); details: amount of applied herbicide 320 g/ha; foliage application after 14-day growth; evaluated three weeks after application
Procedure, shortened: as §1

green foxtail [4] = experiment: Test Example 4: herbicidal effect by soil treatment (Table 19, symbol G); type: in vivo, green foxtail (Setaria viridis); details: amount of applied herbicide 320 g/ha
Procedure, shortened: as §2

late watergrass [5] = experiment: Test Example 2: herbicidal activity, application during weed generation under submerged conditions (Table 17, symbol A); type: in vivo, late watergrass (Echinochloa oryzicola); details: AAH 320 g/ha; application during weed generation, submerged conditions
Procedure, shortened: (§3)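 Herbicide emulsion, diluted with water to the chosen amount, is applied onto 4 cm floodwater over alluvial soil where the weeds were co-sown and raised at 25–30° C. Application timing: 1–2 leaves. Assessment: three weeks afterwards.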

lambsquarters = experiment: Test Example 4: herbicidal effect by soil treatment (Table 19, symbol O); type: in vivo, lambsquarters (Chenopodium album); details: amount of applied herbicide 320 g/ha
Procedure, shortened: as §2

Japanese bulrush = experiment: Test Example 2: herbicidal activity, application during weed generation under submerged conditions (Table 17, symbol B); type: in vivo, Japanese bulrush (Schoenoplectus juncoides); details: AAH 320 g/ha; application during weed generation, submerged conditions
Procedure, shortened: as §3

redroot pigweed = experiment: Test Example 5: herbicidal effect by foliage application, plastic box (Table 20, symbol N); type: in vivo, redroot pigweed (Amaranthus retroflexus); details: amount of applied herbicide 320 g/ha; foliage application after 14-day growth; evaluated three weeks after application
Procedure, shortened: as §1

rice flat sedge = experiment: Test Example 3: herbicidal effect by foliage application, Wagner pot (Table 18, symbol E); type: in vivo, rice flat sedge (Cyperus iria); details: 320 g/ha
Procedure, shortened: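 Plants were sown in alluvial soil held under 0.1–0.5 cm standing water and grown 14 days in a greenhouse at 25–30 °C. An emulsifiable formulation, water-diluted to the set dose, was then sprayed onto the foliage, and effects were scored three weeks later using previously defined criteria.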

velvetleaf [6] = experiment: Test Example 4: herbicidal effect by soil treatment (Table 19, symbol M); type: in vivo, velvetleaf (Abutilon theophrasti); details: amount of applied herbicide 320 g/ha
Procedure, shortened: as §2

green foxtail [7] = experiment: Test Example 5: herbicidal effect by foliage application, plastic box (Table 20, symbol G); type: in vivo, green foxtail (Setaria viridis); details: amount of applied herbicide 320 g/ha; foliage application after 14-day growth; evaluated three weeks after application
Procedure, shortened: as §1

oval-leafed pondweed = experiment: Test Example 2: herbicidal activity, application during weed generation under submerged conditions (Table 17, symbol C); type: in vivo, oval-leafed pondweed (Monochoria vaginalis); details: AAH 320 g/ha; application during weed generation, submerged conditions
Procedure, shortened: as §3

Italian ryegrass = experiment: Test Example 5: herbicidal effect by foliage application, plastic box (Table 20, symbol K); type: in vivo, Italian ryegrass (Lolium multiflorum); details: amount of applied herbicide 320 g/ha; foliage application after 14-day growth; evaluated three weeks after application
Procedure, shortened: as §1

persian speedwell = experiment: Test Example 4: herbicidal effect by soil treatment (Table 19, symbol R); type: in vivo, Persian speedwell (Veronica persica); details: amount of applied herbicide 320 g/ha
Procedure, shortened: as §2

late watergrass [8] = experiment: Test Example 1: herbicidal activity, application before weed generation under submerged conditions (Table 16, symbol A); type: in vivo, late watergrass (Echinochloa oryzicola); details: amount of applied herbicide 320 g/ha
Procedure, shortened: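 Submerged Wagner pots (alluvial soil, 4 cm water) sown with weed seeds and planted with 2.5-leaf rice seedlings; emulsifiable concentrate diluted in water applied to water surface on sowing day. Held in greenhouse at 25-30 °C; injury scored 0-5 by herbicidal rate after three weeks.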

SMILES	Herbicidal effect by foliage application, M: velvetleaf (velvetleaf [1])	Herbicidal effect by soil treatment, L: windgrass (windgrass)	Herbicidal effect by soil treatment, H: barnyard grass (barnyard grass)	Herbicidal effect by soil treatment, P: chickweed (chickweed [2])	Herbicidal effect by foliage application, P: chickweed (chickweed [3])	Herbicidal effect by soil treatment, G: green foxtail (green foxtail [4])	herbicidal effect rating, A: late watergrass (late watergrass [5])	Herbicidal effect by soil treatment, O: lambsquarters (lambsquarters)	herbicidal effect rating, B: Japanese bulrush (Japanese bulrush)	Herbicidal effect by foliage application, N: redroot pigweed (redroot pigweed)	herbicidal effect on rice flat sedge (E) (rice flat sedge)	Herbicidal effect by soil treatment, M: velvetleaf (velvetleaf [6])	Herbicidal effect by foliage application, G: green foxtail (green foxtail [7])	herbicidal effect rating, C: oval-leafed pondweed (oval-leafed pondweed)	Herbicidal effect by foliage application, K: Italian ryegrass (Italian ryegrass)	Herbicidal effect by soil treatment, R: persian speedwell (persian speedwell)	Herbicidal effect, A: late watergrass (late watergrass [8])	L: windgrass, herbicidal effect grade (windgrass)	H: barnyard grass, herbicidal effect grade (barnyard grass)	P: chickweed, herbicidal effect grade (chickweed [2])	further results
COc1ccc(-c2sc3c(C)cccc3c2-c2c(O)c(C)nn(C)c2=O)cc1 [4-110]	5 (Herbicidal rate of 90% or more (almost completely withered))	0 (Herbicidal rate of 5% or less (almost no effect))	0 (Herbicidal rate of 5% or less (almost no effect))	5 (Herbicidal rate of 90% or more (almost completely withered))	5 (Herbicidal rate of 90% or more (almost completely withered))	0 (Herbicidal rate of 5% or less (almost no effect))	0 (Herbicidal rate of 5% or less (almost no effect))	5 (Herbicidal rate of 90% or more (almost completely withered))	3 (Herbicidal rate of 40% or more and less than 70%)	5 (Herbicidal rate of 90% or more (almost completely withered))	5 (Herbicidal rate of 90% or more (almost completely withered))	3 (Herbicidal rate of 40% or more and less than 70%)	3 (Herbicidal rate of 40% or more and less than 70%)	5 (Herbicidal rate of 90% or more (almost completely withered))	5 (Herbicidal rate of 90% or more (almost completely withered))	4 (Herbicidal rate of 70% or more and less than 90%)	5 (Herbicidal rate of 90% or more (almost completely withered))				
CCSc1ccc(-c2sc3c(C)cccc3c2-c2c(O)c(C)nn(C)c2=O)cc1 [4-124]	5 (Herbicidal rate of 90% or more (almost completely withered))	0 (Herbicidal rate of 5% or less (almost no effect))	3 (Herbicidal rate of 40% or more and less than 70%)	4 (Herbicidal rate of 70% or more and less than 90%)	5 (Herbicidal rate of 90% or more (almost completely withered))	5 (Herbicidal rate of 90% or more (almost completely withered))	3 (Herbicidal rate of 40% or more and less than 70%)	5 (Herbicidal rate of 90% or more (almost completely withered))	0 (Herbicidal rate of 5% or less (almost no effect))	5 (Herbicidal rate of 90% or more (almost completely withered))	5 (Herbicidal rate of 90% or more (almost completely withered))	3 (Herbicidal rate of 40% or more and less than 70%)	5 (Herbicidal rate of 90% or more (almost completely withered))	0 (Herbicidal rate of 5% or less (almost no effect))	5 (Herbicidal rate of 90% or more (almost completely withered))	4 (Herbicidal rate of 70% or more and less than 90%)	4 (Herbicidal rate of 70% or more and less than 90%)				
CCCC(=O)Oc1c(C)nn(C)c(=O)c1-c1c(-c2ccccc2OC)sc2cc(F)c(F)cc12 [5-012]	3 (Herbicidal rate of 40% or more and less than 70%)				5 (Herbicidal rate of 90% or more (almost completely withered))		0 (Herbicidal rate of 5% or less (almost no effect))		2 (Herbicidal rate of 20% or more and less than 40%)	4 (Herbicidal rate of 70% or more and less than 90%)	3 (Herbicidal rate of 40% or more and less than 70%)		1 (Herbicidal rate of 5% or more and less than 20%)	2 (Herbicidal rate of 20% or more and less than 40%)	0 (Herbicidal rate of 5% or less (almost no effect))		4 (Herbicidal rate of 70% or more and less than 90%)	3 (Herbicidal rate of 40% or more and less than 70%)	1 (Herbicidal rate of 5% or more and less than 20%)	3 (Herbicidal rate of 40% or more and less than 70%)	G: green foxtail, herbicidal effect grade (green foxtail [4]): 3 (Herbicidal rate of 40% or more and less than 70%); O: lambsquarters, herbicidal effect grade (lambsquarters): 5 (Herbicidal rate of 90% or more (almost completely withered)); M: velvetleaf, herbicidal effect grade (velvetleaf [6]): 3 (Herbicidal rate of 40% or more and less than 70%); R: persian speedwell, herbicidal effect grade (persian speedwell): 3 (Herbicidal rate of 40% or more and less than 70%)
COc1ccc(-c2sc3cc(Cl)c(Cl)cc3c2-c2c(O)c(C)nn(C)c2=O)cc1 [5-043]	4 (Herbicidal rate of 70% or more and less than 90%)				5 (Herbicidal rate of 90% or more (almost completely withered))		2 (Herbicidal rate of 20% or more and less than 40%)		0 (Herbicidal rate of 5% or less (almost no effect))	3 (Herbicidal rate of 40% or more and less than 70%)	4 (Herbicidal rate of 70% or more and less than 90%)		0 (Herbicidal rate of 5% or less (almost no effect))	0 (Herbicidal rate of 5% or less (almost no effect))	0 (Herbicidal rate of 5% or less (almost no effect))		5 (Herbicidal rate of 90% or more (almost completely withered))	0 (Herbicidal rate of 5% or less (almost no effect))	0 (Herbicidal rate of 5% or less (almost no effect))	3 (Herbicidal rate of 40% or more and less than 70%)	G: green foxtail, herbicidal effect grade (green foxtail [4]): 0 (Herbicidal rate of 5% or less (almost no effect)); O: lambsquarters, herbicidal effect grade (lambsquarters): 0 (Herbicidal rate of 5% or less (almost no effect)); M: velvetleaf, herbicidal effect grade (velvetleaf [6]): 0 (Herbicidal rate of 5% or less (almost no effect)); R: persian speedwell, herbicidal effect grade (persian speedwell): 0 (Herbicidal rate of 5% or less (almost no effect))
